Experimental data as given in PMC5967201, “The Odorant Binding Protein 6 Expressed in Sensilla Chaetica Displays Preferential Binding Affinity to Host Plants Volatiles in Ectropis obliqua” (Frontiers in Physiology, 2018).
Entries after “also recorded” stand apart in the source; their conditions may differ. Read-outs that look alike come from different tables or passages of the source.

Legend:
[1] = biological target: T1, EoblOBP6 (Ectropis obliqua, UniProt A0A1L2BL92); assay: Fluorescence competitive binding assay (displacement of 1-NPN from recombinant EoblOBP6)
Experimental: (§1) Fluorescence binding assays were performed on a fluorescence spectrophotometer F-380 (Tianjin, China) with a 1 cm light path quartz cuvette and 10 nm slits for excitation and emission. The excitation wavelength was set at 337 nm, and the emission spectrum was recorded between 390 and 500 nm. Both the fluorescent probe N-phenyl-1-naphthylamine (1-NPN) and the tested chemicals were dissolved in methanol in preparation for 1 mM stock solution. […] The fluorescence intensities at the maximum fluorescence emission were plotted against the free ligand concentration to determine the binding constants. The bound ligand was evaluated from the fluorescence intensity in the assumption of the protein was 100% dynamic, with a stoichiometry of 1:1 (protein: ligand) at saturation. The binding curves were linearized using Scatchard Plot.

[2] = biological target: T1, EoblOBP6; assay: Fluorescence binding assay of probe 1-NPN with recombinant EoblOBP6 (titration, Scatchard plot)
Experimental: as §1, with “For the ligand binding assays, the tested compounds, including terpenoids, tea volatiles, herbivore-induced plant volatiles and non-volatile tastants, were selected according to the previously reported isolation from the E. obliqua host plant and non-host plant ([Sun X.L. et al., 2014]; [Zhang Z. et al., 2015]). Fluorescence” for “Fluorescence”, “saturation. […]” for “saturation.”, “dissociation constants of competitors” for “binding curves”, “calculated from the corresponding IC50 values following the equation: Ki = (IC50)/(1+(1-NPN)/K1-NPN), where (1-NPN) is the free concentration of 1-NPN and K1-NPN is the dissociation constant of the protein/1-NPN complex.” for “linearized using Scatchard Plot.”

[3] = test system: antennae of E. obliqua; design: method as in Zhang Z. et al., 2015; conditions: ref Zhang Z. et al., 2015; cited from earlier work
[4] = Table 1 volatiles, calculated from IC50: Ki = (IC50)/(1+(1-NPN)/K1-NPN)
[5] = Table 2 non-volatile tastants, calculated from IC50: Ki = (IC50)/(1+(1-NPN)/K1-NPN)
[6] = Table 2 non-volatile tastants, competitor 2 to 30 μM, 1-NPN and EoblOBP6 both at 2 μM
[7] = Table 1 volatiles, calculated from IC50: Ki = (IC50)/(1+(1-NPN)/K1-NPN), read-out: Ki
[8] = Table 1 volatiles, competitor titrated 2 to 30 μM into 1-NPN and EoblOBP6 both at 2 μM, 50 mM Tris-HCl pH 7.4, read-out: IC50

T1 sequence (A0A1L2BL92 entry or part of it): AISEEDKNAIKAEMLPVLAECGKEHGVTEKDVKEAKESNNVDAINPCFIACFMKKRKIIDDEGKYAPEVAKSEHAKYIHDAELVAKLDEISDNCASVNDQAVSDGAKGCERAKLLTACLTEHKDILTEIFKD

C=CC(C)(O)CCC=C(C)CCC=C(C)C (mixture of isomers) [Nerolidol]
IC50 [1]: 15.6 ± 0.76 µM | Ki [1]: 10.9 ± 0.53 µM | binding ability to EoblOBP6 in words [1]: high binding ability

CC1=C[C@H](O)[C@H]2C[C@@H]1C2(C)C (relative stereo) [cis-Verbenol]
Ki [1, 4]: u.d.

CCCCCCO [1-Hexanol]
binding ability to EoblOBP6 in words [1]: could hardly bind | Ki [1, 4]: u.d.

c1ccc(Nc2cccc3ccccc23)cc1 [1-NPN, N-phenyl-1-naphthylamine]
Kd [2]: 2.7 ± 0.24 µM

C=C1[C@H]2CC[C@H](C2)C1(C)C [(+)-Camphene]
Ki [1, 4]: u.d.

C=C1CCC2CC1C2(C)C (stereo not drawn) [(-)-β-Pinene]
Ki [1, 4]: u.d.

CCC/C=C/C=O [(E)-2-hexenal]
Ki [1, 4]: u.d.

CC/C=C\CC=O [(Z)-3-hexenal]
Ki [1, 4]: u.d.

CC/C=C\CCO [(Z)-3-hexenol]
binding ability to EoblOBP6 in words [1]: could hardly bind | Ki [1, 4]: u.d.

CC/C=C\CCOC(C)=O [(Z)-3-hexenyl acetate]
Ki [1, 4]: u.d.

CC/C=C\CCOC(=O)CCC [(Z)-3-hexenyl butyrate]
Ki [1, 4]: u.d.

CC/C=C\CCOC(=O)CCCCC [(Z)-3-hexenyl hexanoate]
Ki [1, 4]: u.d.

CN1[C@@H]2CC[C@H]1C[C@@H](OC(=O)C(CO)c1ccccc1)C2 (some centres unmarked) [Atropine, reference compound]
Ki [1, 5]: u.d. | IC50 [1, 6]: u.d.

O=Cc1ccccc1 [Benzaldehyde]
IC50 [1]: 21.6 ± 0.84 µM | Ki [1]: 15.1 ± 0.58 µM

OCc1ccccc1 [Benzyl alcohol]
Ki [1, 4]: u.d.

N#CCc1ccccc1 [Benzyl nitrile]
Ki [1, 4]: u.d.

COc1ccc2cc3[n+](cc2c1OC)CCc1cc2c(cc1-3)OCO2 [Berberine]
IC50 [1]: 7.94 ± 0.61 µM | Ki [1]: 5.55 ± 0.87 µM | binding ability to EoblOBP6 in words [1]: tightly bound; also recorded: bind strongly

Cn1c(=O)c2c(ncn2C)n(C)c1=O [Caffeine, reference compound]
Ki [1, 5]: u.d. | IC50 [1, 6]: u.d.

CC12CCC(CC1=O)C2(C)C (centres unmarked) [Camphor]
Ki [1, 4]: u.d.

O.Oc1cc(O)c2c(c1)O[C@H](c1ccc(O)c(O)c1)[C@@H](O)C2 [Catechin]
Ki [1, 5]: u.d. | IC50 [1, 6]: u.d.

OCc1ccccc1O[C@@H]1O[C@H](CO)[C@@H](O)[C@H](O)[C@H]1O [D(-)-Salicin]
Ki [1, 5]: u.d. | IC50 [1, 6]: u.d.

OC[C@H]1OC(O)[C@H](O)[C@@H](O)[C@@H]1O (stereo partly drawn) [D-Glucose]
Ki [1, 5]: u.d. | IC50 [1, 6]: u.d.

OC[C@H]1O[C@@](CO)(O[C@H]2O[C@H](CO)[C@@H](O)[C@H](O)[C@H]2O)[C@@H](O)[C@@H]1O [D-Sucrose]
Ki [1, 5]: u.d. | IC50 [1, 6]: u.d.

O=C[C@H](O)[C@@H](O)[C@H](O)CO [D-Xylose]
Ki [1, 5]: u.d. | IC50 [1, 6]: u.d.

CCCCCCCCCC=O [Decanal]
binding ability to EoblOBP6 in words [1]: could hardly bind | Ki [1, 4]: u.d.

CCCCCCOC(C)=O [Hexyl acetate]
binding ability to EoblOBP6 in words [1]: could hardly bind | Ki [1, 4]: u.d.

c1ccc2[nH]ccc2c1 [Indole]
Ki [1, 4]: u.d.

C[C@H](N)C(=O)O [L-Alanine]
Ki [1, 5]: u.d. | IC50 [1, 6]: u.d.

N[C@@H](Cc1c[nH]cn1)C(=O)O [L-Histidine]
Ki [1, 5]: u.d. | IC50 [1, 6]: u.d.

C=C(C)[C@H]1CC=C(C)CC1 [Limonene]
Ki [1, 4]: u.d.

C=CC(C)(O)CCC=C(C)C (centres unmarked) [Linalool]
Ki [1, 4]: u.d.

COC(=O)c1ccccc1O [Methyl salicylate]
Ki [1, 4]: u.d.

CCCCCCCCC=O [Nonanal]
Ki [1, 4]: u.d.

Cn1c(=O)c2[nH]cnc2n(C)c1=O [Theophylline, reference compound]
Ki [1, 5]: u.d. | IC50 [1, 6]: u.d.

OC[C@H]1O[C@H](O[C@H]2O[C@H](CO)[C@@H](O)[C@H](O)[C@H]2O)[C@H](O)[C@@H](O)[C@@H]1O [Trehalose]
Ki [1, 5]: u.d. | IC50 [1, 6]: u.d.

CC1=CC(=O)[C@@H]2C[C@H]1C2(C)C [Verbenone]
Ki [1, 4]: u.d.

C/C1=C\CC/C(C)=C/CC(C)(C)/C=C/C1 [α-Caryophyllene]
Ki [1, 7]: 15.6 ± 0.19 µM | IC50 [1, 8]: 22.4 ± 0.27 µM

C=C/C(C)=C/C/C=C(\C)CCC=C(C)C [α-Farnesene]
binding ability to EoblOBP6 in words [1]: high binding ability | Ki [1, 7]: 11 ± 0.29 µM | IC50 [1, 8]: 15.8 ± 0.42 µM

CC1=CCC2CC1C2(C)C (stereo not drawn) [α-Pinene]
Ki [1, 4]: u.d.

CC1=CC=C(C(C)C)CC1 [α-Terpinene]
IC50 [1]: 26.2 ± 0.53 µM | Ki [1]: 18.3 ± 0.37 µM | electrophysiological responses from the antennae [3]: strong electrophysiological responses

CC1=CC[C@@H](C(C)(C)O)CC1 [α-Terpineol]
Ki [1, 4]: u.d.

C=C1CC/C=C(\C)CC[C@@H]2[C@@H]1CC2(C)C [β-Caryophyllene]
Ki [1, 4]: u.d.

CC(=O)/C=C/C1=C(C)CCCC1(C)C [β-Ionone]
Ki [1, 4]: u.d.

C=CC(=C)CCC=C(C)C [β-Myrcene]
Ki [1, 4]: u.d.

C=C/C(C)=C/CC=C(C)C [β-Ocimene]
Ki [1, 4]: u.d.

CC1=CCC(C(C)C)=CC1 [γ-Terpinene]
Ki [1, 4]: u.d.
